Data on six molecules can be found in patent publication US20100113464A1, “NOVEL PYRIDAZINE DERIVATIVES” (SYNGENTA CROP PROTECTION, INC., priority 2006, published 2010).

The subject of series [1] is Alternaria solani. Kind of series: Alternaria solani/Tomato/Preventive (action against Alternaria on tomato). It is filed as in vivo. Particulars: 96 h, preventive spray, tomato plants cv. Roter Gnom, assessed after 4 days incubation, untreated controls infected over 80%, read-out: inhibit fungal infestation. The protocol: Alternaria solani/Tomato/Preventive (Action Against Alternaria on Tomato) 4 weeks old tomato plants cv. Roter Gnom are treated with the formulated test compound in a spray chamber. Two days after application tomato plants are inoculated by spraying a spore suspension on the test plants. After an incubation period of 4 days at 22° C./18° C. and 95% r.h. in a greenhouse the disease incidence is assessed.

In series [2] the test system is Botrytis cinerea. Kind of series: Botrytis cinerea/Tomato/Preventive (action against Botrytis on tomato). Format: in vivo. Particulars: 72 h, preventive spray, tomato plants cv. Roter Gnom, assessed after 3 days incubation, untreated controls infected over 80%, read-out: inhibit fungal infestation. Here is the method:
Botrytis cinerea/Tomato/Preventive (Action Against Botrytis on Tomato) 4 weeks old tomato plants cv. Roter Gnom are treated with the formulated test compound in a spray chamber. Two days after application tomato plants are inoculated by spraying a spore suspension on the test plants. After an incubation period of 3 days at 20° C. and 95% r. h. in a greenhouse the disease incidence is assessed.

Series [3] deals with Puccinia recondite. Kind of series: Puccinia recondite/Wheat/Preventive (action against brown rust on wheat). It is filed as in vivo. Particulars: 264 h, preventive spray, wheat plants cv. Arina, assessed 11 days after inoculation, untreated controls infected over 80%, read-out: inhibits fungal infestation. The protocol:
Puccinia recondite/Wheat/Preventive (Action Against Brown Rust on Wheat) 1 week old wheat plants cv. Arina are treated with the formulated test compound in a spray chamber. One day after application wheat plants are inoculated by spraying a spore suspension ([…] uredospores/ml) on the test plants. After an incubation period of 1 day at 20° C. and 95% r h. plants are kept for 10 days 20° C./18° C. (day/night) and 60% r.h. in a greenhouse. The disease incidence is assessed 11 days after inoculation.

Series [4] concerns Magnaporthe arisea (Pyricularia oryzae). Kind of series: whole plant or invertebrate. Format: in vivo. The conditions noted are these: 144 h, read-out: inhibit fungal infestation.
Series [5] relates to Pyrenophora teres (Helminthosporium teres). As to the kind of experiment: Pyrenophora teres (Helminthosporium teres)/Barley/Preventive (action against net blotch on barley). It is filed as in vivo. Particulars: 96 h, preventive spray, barley plants cv. Regina, assessed after 4 days incubation, untreated controls infected over 80%, read-out: inhibit fungal infestation. Here is the method: Pyrenophora teres (Helminthosporium teres)/Barley/Preventive (Action Against Net Blotch on Barley) 1-week-old barley plants cv. Regina are treated with the formulated test compound in a spray chamber. Two days after application barley plants are inoculated by spraying a spore suspension (2.6×10^4 conidia/ml) on the test plants. After an incubation period of 4 days at 20° C. and 95% r.h. the disease incidence is assessed.

The test system of series [6] is Septoria tritici. As to the kind of experiment: Septoria tritici/Wheat/Preventive (action against Septoria leaf spot on wheat). Format: in vivo. The conditions noted are these: Zymoseptoria tritici, preventive spray, wheat plants cv. Riband, assessed 16-18 days after inoculation, untreated controls infected over 80%, read-out: inhibits fungal infestation. Here is the method:
Septoria tritici/Wheat/Preventive (Action Against Septoria Leaf Spot on Wheat) 2 weeks old wheat plants cv. Riband are treated with the formulated test compound in a spray chamber. One day after application wheat plants are inoculated by spraying a spore suspension (10^6 conidia/ml) on the test plants. After an incubation period of 1 day at 22° C./21° C. and 95% r.h. plants are kept at 22° C./21° C. and 70% r.h. in a greenhouse. The disease incidence is assessed 16-18 days after inoculation.

The test system of series [7] is Uncinula necator. As to the kind of experiment: Uncinula necator/Grape/Preventive (action against powdery mildew on grape). It is filed as in vivo. Particulars: Erysiphe necator, 168 h, preventive spray, grape seedlings cv. Gutedel, assessed after 7 days incubation, untreated controls infected over 80%, read-out: inhibit fungal infestation. Here is the method: Uncinula necator/Grape/Preventive (Action Against Powdery Mildew on Grape) 5 weeks old grape seedlings cv. Gutedel are treated with the formulated test compound in a spray chamber. One day after application grape plants are inoculated by shaking plants infected with grape powdery mildew above the test plants. After an incubation period of 7 days at 24° C./22° C. and 70% r.h. under a light regime of 14/10 h (light/dark) the disease incidence is assessed.

A value given as a limit tells only on which side of the number the result lay.

`Cc1n[nH]c(=O)c(-c2c(F)cc(F)cc2F)c1-c1cccs1` [I.h.196, 6-methyl-5-thiophen-2-yl-4-(2,4,6-trifluorophenyl)-2H-pyridazin-3-one]: the melting point is 249 to 251 °C.

The molecule `Cc1nnc(F)c(-c2c(F)cc(F)cc2F)c1-c1cccs1` [I.h.197, 3-fluoro-6-methyl-5-thiophen-2-yl-4-(2,4,6-trifluorophenyl)-pyridazine] gave a melting point of 71 to 74 °C. Besides, the inhibition at 200 ppm in series [1] is not below 80%. Also, the inhibition at 200 ppm in series [2] is not below 80%. Besides, the inhibition at 200 ppm in series [3] was not below 80%. The inhibition at 200 ppm in series [4] is not below 80%. Also, the inhibition at 200 ppm in series [5] is not below 80%. In addition, the inhibition at 200 ppm in series [6] was not below 80%.

The molecule `Cc1nnc(Cl)c(-c2c(F)cc(F)cc2F)c1-c1cccs1` [I.h.198, 3-chloro-6-methyl-5-thiophen-2-yl-4-(2,4,6-trifluorophenyl)-pyridazine] registered a melting point of 90 to 92 °C. In series [1], the inhibition at 200 ppm is not below 80%. In addition, the inhibition at 200 ppm in series [2] was not below 80%. Moreover, the inhibition at 200 ppm in series [3] was not below 80%. The inhibition at 200 ppm in series [4] is not below 80%. In addition, the inhibition at 200 ppm in series [5] is not below 80%. The inhibition at 200 ppm in series [6] was not below 80%. Moreover, the inhibition at 200 ppm in series [7] is not below 80%.

In the case of `COc1nnc(C)c(-c2cccs2)c1-c1c(F)cc(F)cc1F` [I.h.199, 3-methoxy-6-methyl-5-thiophen-2-yl-4-(2,4,6-trifluorophenyl)-pyridazine], the melting point fell in the range of 124 to 125 °C. Moreover, the inhibition at 200 ppm in series [1] was not below 80%. For the same molecule, the inhibition at 200 ppm in series [2] was not below 80%. Besides, in series [3], the inhibition at 200 ppm was not below 80%. The inhibition at 200 ppm in series [4] is not below 80%. Also, the inhibition at 200 ppm in series [5] is not below 80%. For the same molecule, the inhibition at 200 ppm in series [6] is not below 80%. Besides, in series [7], the inhibition at 200 ppm is not below 80%.

In the case of `Cc1nnc(C)c(-c2c(F)cc(F)cc2F)c1-c1cccs1` [I.h.200, 3,6-dimethyl-4-thiophen-2-yl-5-(2,4,6-trifluorophenyl)-pyridazine], the melting point is 100 to 102 °C. Further, in series [1], the inhibition at 200 ppm is not below 80%. Also, the inhibition at 200 ppm in series [2] is not below 80%. For the same molecule, in series [3], the inhibition at 200 ppm is not below 80%. The inhibition at 200 ppm in series [4] is not below 80%. Besides, the inhibition at 200 ppm in series [5] was not below 80%. Further, in series [6], the inhibition at 200 ppm is not below 80%. In addition, in series [7], the inhibition at 200 ppm was not below 80%.

For the molecule `COc1cc(F)c(-c2c(OC)nnc(C)c2-c2cccs2)c(F)c1` [I.h.254, 4-(2,6-difluoro-4-methoxyphenyl)-3-methoxy-6-methyl-5-thiophen-2-yl-pyridazine], the melting point fell in the range of 130 to 133 °C.

As a reminder, the melting point is the temperature, or range, at which the solid turns liquid.
